Where no end group is shown, it is not given here. [ ]: non-standard residue; d: D form. Cba = N[C@@H](CC1CCC1)C(=O)O; Tle = CC(C)(C)[C@H](N)C(=O)O

Data set [1] in a line: Murine serum stability assay. Type of data set: in vitro ADME, mouse. To be noted: mouse, serum; linear peptides, Table 11; read-out: Murine serum stability assay, T1/2. Here is the method: Serum was drawn from male CD-1 mice by Pharmidex. Lyophilized peptides were solubilized in DMSO and then further diluted into male mouse (CD-1) serum at 37° C. in duplicates. The reaction was incubated at 37° C. and samples extracted at 6 time points: 0, 0.16, 0.5, 1, 3, and 6 hrs. Acetonitrile (ACN) with an internal standard (tolbutamide) was added to stop the incubation. Samples were centrifuged, and the supernatant was analyzed by HPLC-MS/MS for the parent compound.

Data set [2] in a line: Dynamic light scattering (solubility/aggregation). Type of data set: physicochemical. The settings on record: working concentrations (250 nM, PBS, pH 7.4). Here is the method:
Samples were spun down on a bench top centrifuge, 15 minutes, 15,000 rpm, room temperature, to pellet any aggregated peptide/dust before taking a measurement. Visual inspection of the tubes was used to identify if any large pellets were formed, which is indicative of large aggregates. […] The plate was then transferred and read on the DLS instrument (Wyatt Technology DynaPro Plate Reader III) at 25° C.

The next data set deals with T1, rat SORT1 (76-752)-His (rat, UniProt O54861 76-752).
T1 construct: range 76-752; Amine-coupled to CM5 chip for SPR
T1 sequence (looked up): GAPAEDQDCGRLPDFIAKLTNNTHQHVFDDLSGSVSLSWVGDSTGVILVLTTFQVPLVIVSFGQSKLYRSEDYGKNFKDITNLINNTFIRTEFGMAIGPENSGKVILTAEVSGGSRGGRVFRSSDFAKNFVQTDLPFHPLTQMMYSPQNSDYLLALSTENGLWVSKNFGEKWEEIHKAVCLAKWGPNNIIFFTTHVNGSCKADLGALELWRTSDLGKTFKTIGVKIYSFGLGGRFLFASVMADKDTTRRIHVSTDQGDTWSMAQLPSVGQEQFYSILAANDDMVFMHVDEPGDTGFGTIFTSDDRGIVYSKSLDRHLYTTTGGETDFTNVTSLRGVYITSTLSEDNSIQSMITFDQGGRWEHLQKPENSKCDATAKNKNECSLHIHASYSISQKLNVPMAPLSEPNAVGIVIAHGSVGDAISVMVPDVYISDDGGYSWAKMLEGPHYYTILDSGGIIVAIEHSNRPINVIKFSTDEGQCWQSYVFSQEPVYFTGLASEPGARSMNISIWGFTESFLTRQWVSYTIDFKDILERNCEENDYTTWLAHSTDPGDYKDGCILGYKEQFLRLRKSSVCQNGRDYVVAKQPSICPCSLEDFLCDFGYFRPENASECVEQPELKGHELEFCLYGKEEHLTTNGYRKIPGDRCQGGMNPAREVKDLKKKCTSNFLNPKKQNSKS
Nature of the data set: SPR (Biacore 8K), SORT1 on CM5 chip, unconjugated peptide with conjugation handles as analyte, 1:1 model. The procedure:
(§1) SPR analysis was performed on Series S CM5 chips (Cytiva) using a Biacore 8K instrument (Cytiva). Sensorgrams were double-referenced by subtracting the response on both a reference flow cell and a blank sample. Human SORT1 (78-755)-His (Acrobiosystems), human SORT1 (78-755)-His(GenScript), mouse SORT1 (76-753)-His (R&D Systems), rat SORT1 (76-752)-His (GenScript), and cyno SORT1 (76-753)-His (GenScript) were diluted to 20-60 μg/mL in 10 mM sodium acetate pH 4.5 buffer and immobilized onto Series S CM5 chips using amine coupling at a flow rate of 10 μL/min for 45-100 s.
(§2) Ten start-up cycles and a blank cycle preceded each analysis run. The runs were performed by sequential injections of analyte (0-20 nM, 3-fold serial dilutions) with a 90 s association and 900 s dissociation at a flow rate of 30 μL/min, followed by two regeneration cycles with 2 M MgCl2 for 90 s at a flow rate of 10 μL/min. […] Five start-up cycles and a blank cycle preceded each analysis run. The runs were performed by sequential injections of analyte (0-25 nM) with a 150 seconds (s) association and 300 s dissociation at a flow rate of 30 μL/min, followed by a regeneration with 2 M MgCl₂ for 200 s at a flow rate of 10 μL/min. The kinetic rate constants (kₐ and kd) and the equilibrium binding constant (Kd) were calculated using a 1:1 kinetic binding model on the Biacore Insight Evaluation Software (Cytiva).
(§3) SPR analysis was performed on Series S CM5 chips (Cytiva) using a Biacore 8K instrument (Cytiva). Sensorgrams were double-referenced by subtracting the response on both a reference flow cell and a blank sample. The SPR analysis was conducted using four different SORT1 species: Human SORT1, Mouse SORT1, Rat SORT1, and Cyno SORT1. The samples were prepared according to the general procedure described above herein. The kinetic rate constants (ka and […]) and the equilibrium binding constant (Kd) were calculated using a 1:1 kinetic binding model on the Biacore Insight Evaluation Software (Cytiva).

The next data set deals with T2, cyno SORT1 (76-753)-His (cyno, UniProt A0A2K5VHG2 74-751).
T2 construct: range 76-753; Amine-coupled to CM5 chip for SPR
T2 sequence: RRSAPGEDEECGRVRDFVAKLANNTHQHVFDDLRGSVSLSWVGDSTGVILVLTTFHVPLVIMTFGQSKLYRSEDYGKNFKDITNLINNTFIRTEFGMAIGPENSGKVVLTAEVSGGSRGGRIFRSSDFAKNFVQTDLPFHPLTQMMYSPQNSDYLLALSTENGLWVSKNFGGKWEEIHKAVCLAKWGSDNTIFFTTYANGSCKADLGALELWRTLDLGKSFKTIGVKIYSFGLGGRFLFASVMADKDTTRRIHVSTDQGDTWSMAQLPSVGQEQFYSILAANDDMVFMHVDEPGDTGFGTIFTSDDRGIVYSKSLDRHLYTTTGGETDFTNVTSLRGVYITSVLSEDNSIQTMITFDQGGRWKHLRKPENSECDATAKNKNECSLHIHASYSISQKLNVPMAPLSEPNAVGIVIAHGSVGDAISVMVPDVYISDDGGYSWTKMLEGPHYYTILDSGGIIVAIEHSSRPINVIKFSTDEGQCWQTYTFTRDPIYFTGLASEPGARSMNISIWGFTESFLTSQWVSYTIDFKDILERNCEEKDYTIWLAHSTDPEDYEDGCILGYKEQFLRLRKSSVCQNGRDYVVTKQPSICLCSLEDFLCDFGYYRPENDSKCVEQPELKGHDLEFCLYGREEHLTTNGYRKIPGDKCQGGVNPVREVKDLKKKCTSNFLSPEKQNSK
The description is as above. The procedure:
as §1, §2, §3

For `CC(C)C[C@H](NC(=O)[C@H](CCCNC(=N)N)NC(=O)[C@H](CC(C)C)NC(=O)[C@H](C)NC(=O)[C@H](CC(C)C)NC(=O)[C@H](CCCNC(=N)N)NC(=O)[C@H](CCC(N)=O)NC(=O)[C@H](CC(C)C)NC(=O)[C@H](C)NC(=O)[C@@H]1CCCN1C(=O)[C@H](Cc1c[nH]c2ccccc12)NC(=O)[C@@H]1CCCN1C(=O)[C@H](C)NC(=O)[C@H](CCCNC(=N)N)NC(=O)[C@@H]1CCCN1C(=O)[C@H](CC(=O)O)NC(=O)[C@@H](N)CC(=O)O)C(=O)O` [PRGN_RL], the half-life in data set [1] was 27.7 min. For the same molecule, the “solubility (DLS)” value in data set [2] is recorded as “good solubility”.

Consider `CC(C)C[C@H](NC(=O)[C@H](CC(C)C)NC(=O)[C@H](CCC(N)=O)NC(=O)[C@H](CCCNC(=N)N)NC(=O)[C@H](CC(C)C)NC(=O)[C@H](C)NC(=O)[C@@H]1CCCN1C(=O)[C@H](CC(=O)O)NC(=O)[C@H](CCCNC(=N)N)NC(=O)[C@H](CC(C)C)NC(=O)[C@@H]1CCCN1C(=O)[C@H](C)NC(=O)[C@H](CC(=O)O)NC(=O)[C@H](Cc1c[nH]c2ccccc12)NC(=O)[C@H](CCCNC(=N)N)NC(=O)[C@@H]1CCCN1C(=O)[C@H](C)N)C(=O)O` [PRGN_WT], for which the half-life in data set [1] is 3.16 min. Moreover, the “solubility (DLS)” value in data set [2] was “good solubility”.

B1: SORT1 peptide 2 (w/conjugation handles), unconjugated (peptide)
peptide: APRWDAPLRDPALRQ[Tle][Cba]
modifications: also: conjugation handles, not given here
notes: also called Arb-SAR-Q15
For orientation: Kd means a measure of binding affinity in units of concentration. Low values mean higher affinity, high ones lower affinity. In the case of B1, the Kd came to 0.757 nM with rat SORT1 (76-752)-His and 0.152 nM with cyno SORT1 (76-753)-His.

Values taken from patent publication US20260183411A1, “TARGETING SORTILIN” (priority 2024, published 2026).
